From PubChem BioAssay (NCI)
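A five-concentration, 48-hour dose response in 96-well plates underlies each endpoint, interpolated linearly between surrounding concentrations. The concentration for 50% growth inhibition is given as GI50. TGI marks complete inhibition of growth.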

Experiments:
Assay in all cases: NCI-60 cell line screen, 48 h
[1] = tested on: OVCAR-5 ovarian
[2] = tested on: HS 578T breast
[3] = tested on: SNB-19 CNS
[4] = tested on: HL-60(TB) leukemia
[5] = tested on: SNB-75 CNS
[6] = tested on: A549 NSCLC
[7] = tested on: SK-MEL-2 melanoma
[8] = tested on: IGROV1 ovarian
[9] = tested on: UACC-257 melanoma
[10] = tested on: RXF 393 renal
[11] = tested on: UO-31 renal
[12] = tested on: DU-145 prostate
[13] = tested on: CAKI-1 renal
[14] = tested on: UACC-62 melanoma
[15] = tested on: COLO 205 colon
[16] = tested on: MOLT-4 leukemia
[17] = tested on: SF-268 CNS
[18] = tested on: T-47D breast
[19] = tested on: NCI-H226 lung
[20] = tested on: SF-295 CNS
[21] = tested on: M14 melanoma
[22] = tested on: SK-MEL-28 melanoma
[23] = tested on: NCI-H23 lung
[24] = tested on: KM12 colon
[25] = tested on: HT29 colon
[26] = tested on: LOX IMVI melanoma
[27] = tested on: MCF7 breast
[28] = tested on: SW-620 colon
[29] = tested on: MALME-3M melanoma
[30] = tested on: NCI-H460 lung
[31] = tested on: HOP-62 NSCLC
[32] = tested on: K-562 leukemia
[33] = tested on: CCRF-CEM leukemia
[34] = tested on: U251 CNS
[35] = tested on: HCT-15 colon
[36] = tested on: PC-3 prostate
[37] = tested on: MDA-MB-231 breast
[38] = tested on: RPMI-8226 leukemia
[39] = tested on: SK-OV-3 ovarian
[40] = tested on: SR leukemia
[41] = tested on: NCI/ADR-RES ovarian
[42] = tested on: A498 renal
[43] = tested on: SN12C renal
[44] = tested on: MDA-MB-435
[45] = tested on: SF-539 CNS
[46] = tested on: NCI-H522 lung
[47] = tested on: OVCAR-8 ovarian

## C#CC[C@@H]1C[C@]2(C)[C@H]3CC=C4[C@H]5[C@@H](C)[C@H](C)CC[C@]5(C(=O)NCCCN5CCN(CCCN)CC5)CC[C@@]4(C)[C@]3(C)CC[C@H]2C(C)(C)[C@H]1OC(C)=O
[1]
  GI50: 1.61 µM
  TGI: 3.02 µM

## COc1ccc(-c2nn(-c3cccc(NC(=O)Nc4ccccc4)c3)cc2-c2ccncc2)cc1Cl
[1]
  GI50: 2.5 µM
  TGI: 8.79 µM
[2]
  GI50: 2.46 µM
  TGI: 7.94 µM
[3]
  GI50: 2.83 µM
  TGI: > 100 µM
[4]
  GI50: 2.52 µM
  TGI: 6.36 µM
[5]
  GI50: 1.33 µM
  TGI: 2.79 µM
[6]
  GI50: 2.11 µM
  TGI: 4.99 µM
[7]
  GI50: 3.14 µM
  TGI: 7.53 µM
[8]
  GI50: 2.73 µM
  TGI: 8.02 µM
[9]
  GI50: 2.5 µM
  TGI: 6.33 µM
[10]
  GI50: 1.97 µM
  TGI: 6.47 µM
[11]
  GI50: 1.5 µM
  TGI: 4.02 µM
[12]
  GI50: 2.47 µM
  TGI: 5.87 µM
[13]
  GI50: 2.97 µM
  TGI: 9.35 µM
[14]
  GI50: 3.05 µM
  TGI: > 100 µM
[15]
  GI50: 2.56 µM
  TGI: 6.69 µM
[16]
  GI50: 2.5 µM
  TGI: 7.96 µM
[17]
  GI50: 2.6 µM
  TGI: 7 µM
[18]
  GI50: 2.19 µM
  TGI: 5.39 µM
[19]
  GI50: 2.15 µM
  TGI: 5.81 µM
[20]
  GI50: 2.01 µM
  TGI: 6.32 µM
[21]
  GI50: 2.26 µM
  TGI: 4.85 µM
[22]
  GI50: 2.62 µM
  TGI: 7.16 µM
[23]
  GI50: 3.5 µM
  TGI: > 100 µM
[24]
  GI50: 2.25 µM
  TGI: 4.89 µM
[25]
  GI50: 2.19 µM
  TGI: 4.78 µM
[26]
  GI50: 3.25 µM
  TGI: 17 µM
[27]
  GI50: 2.07 µM
  TGI: 4.91 µM
[28]
  GI50: 2.51 µM
  TGI: 7.36 µM
[29]
  GI50: 1.89 µM
  TGI: 4.83 µM
[30]
  GI50: 2.06 µM
  TGI: 4.48 µM
[31]
  GI50: 3.12 µM
  TGI: 9.13 µM
[32]
  GI50: 3.49 µM
  TGI: > 100 µM
[33]
  GI50: 2.65 µM
  TGI: 8.31 µM
[34]
  GI50: 1.99 µM
  TGI: 4.91 µM
[35]
  GI50: 1.96 µM
  TGI: 4.98 µM
[36]
  GI50: 1.84 µM
  TGI: 4.5 µM
[37]
  GI50: 2.53 µM
  TGI: 8.01 µM
[38]
  GI50: 2.14 µM
  TGI: 5.83 µM
[39]
  GI50: 3.4 µM
  TGI: 30.8 µM
[40]
  GI50: 2.35 µM
  TGI: 6.69 µM
[41]
  GI50: 2.81 µM
  TGI: 8.26 µM
[42]
  GI50: 1.17 µM
  TGI: 3.28 µM
[43]
  GI50: 2.39 µM
  TGI: 7.39 µM
[44]
  GI50: 2.03 µM
  TGI: 5.25 µM
[45]
  GI50: 1.8 µM
  TGI: 3.5 µM
[46]
  GI50: 2.5 µM
  TGI: 7.22 µM
[47]
  GI50: 2.51 µM
  TGI: 7.18 µM
